These results are taken from PMC9219103 (ACS Omega, 2022).

One data set has as its system SOD. Particulars: read-out: SOD inhibition IC50; via copper chelation; cited from earlier work.
Data set [1] has as its system normal human cells (Wi-38). In words: MTT cytotoxicity screening on normal human cells. Format: cell-based. As to conditions: for EC100 (safe concentration at 100% cell viability): Wi-38 normal human lung fibroblasts, MTT, 72 h, mean ± SEM.
In data set [2] the test system is human colon cancer (Caco-2) cells. In words: MTT anticancer screening on human colon cancer Caco-2 cells. As to conditions: for IC50: Caco-2, MTT, 72 h, mean ± SEM; for Morphological changes of Caco-2 cells: 72 h treatment, phase contrast microscopy. Type of data set: cell-based.
Another data set has as its system ALDH1A. In words: Inhibition of ALDH1A activity in treated Caco-2 cells. Format: cell-based, human. As to conditions: Caco-2 cells treated with anticancer IC50 dose, 72 h.
The next data set addresses Cu/Zn SOD (Homo sapiens, UniProt P00441). In words: Inhibition of intracellular SOD activity in treated Caco-2 cells. Particulars: Caco-2 cells treated with anticancer IC50 dose, 72 h. Type of data set: cell-based.
A further data set concerns Caco-2 cells. Description: Determination of cellular ROS in Caco-2. Format: cell-based, human. Particulars: Caco-2 cells treated with anticancer IC50 dose.
The subject of data set [3] is glutathione peroxidase (GPx). Description: Inhibition of glutathione peroxidase activity in treated Caco-2 cells. Type of data set: cell-based, human. As to conditions: Caco-2 cells treated with anticancer IC50 dose, 72 h.

Values joined by “and” are separate entries in the source; they are usually repeats but may differ in a detail not shown here. Equal values may be shown once.

Sequence of Cu/Zn SOD (P00441 whole entry): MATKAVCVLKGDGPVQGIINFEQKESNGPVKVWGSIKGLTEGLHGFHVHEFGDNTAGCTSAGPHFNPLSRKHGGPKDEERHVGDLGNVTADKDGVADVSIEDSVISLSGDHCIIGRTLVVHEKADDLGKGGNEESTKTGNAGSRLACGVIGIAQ

In the case of `C[N+](C)(C)CCO.C[N+](C)(C)CCO.[SH-].[SH-].[S]=[Mo]=[S]` [ATN-224, bis-choline tetrathiomolybdate], the IC50 with SOD was 0.33 µM.
On to `O=C1CSC(=O)N1` [Compound 1, 2,4-thiazolidinedione], for which the “EC100 (safe concentration at 100% cell viability)” value in data set [1] was 22.05 µM and 22.047 ± 0.434 µM. In data set [2] (Homo sapiens, Caco-2, 72 h), this compound had an IC50 of 12.1 ± 3.25 µM.
As to `O=C1N=C(O)SC1=Cc1ccccc1` [Compound 3a, 5-Benzylidenethiazolidine-2,4-dione], the “EC100 (safe concentration at 100% cell viability)” value in data set [1] is 19.679 ± 3.105 µM. The compound further returned an IC50 in data set [2] (Homo sapiens, Caco-2, 72 h) of 74.6 ± 8.31 µM.
Take `O=C1NC(=O)C(=Cc2ccc([N+](=O)[O-])cc2)S1` [Compound 3c, 5-(4-Nitrobenzylidene)thiazolidine-2,4-dione]: the “EC100 (safe concentration at 100% cell viability)” value in data set [1] came to 6.0653 ± 0.127 µM. In data set [2], the “Morphological changes of Caco-2 cells” value was “severe shrinkage and collapse”; the IC50 was determined as 4.72 ± 0.602 µM. Further, in data set [2] (Homo sapiens, Caco-2, 72 h), 4.71 µM corresponded to half-maximal inhibition (IC50).
In the case of `CN(C)c1ccc(C=C2SC(O)=NC2=O)cc1` [Compound 3d, 5-(4-(Dimethylamino)benzylidene)thiazolidine-2,4-dione], the “EC100 (safe concentration at 100% cell viability)” value in data set [1] was 25.35 µM and 25.345 ± 0.655 µM. The same compound returned an IC50 in data set [2] (Homo sapiens, Caco-2, 72 h) of 8.95 ± 0.631 µM.
As for `O=C1NC(=O)C(=Cc2ccc(O)cc2)S1` [Compound 3e, 5-(4-Hydroxybenzylidene)thiazolidine-2,4-dione], the “EC100 (safe concentration at 100% cell viability)” value in data set [1] amounted to 6.727 ± 0.040 µM. In data set [2] (Homo sapiens, Caco-2, 72 h), this compound came in with an IC50 of 8.48 ± 0.599 µM.
As for `C=CCN1C(=O)SC(=Cc2ccccc2)C1=O` [Compound 4a, 3-Allyl-5-benzylidenethiazolidine-2,4-dione], in data set [1] (Wi-38, EC100 compound vs DOX), the “EC100 fold relative to doxorubicin (safety)” value is recorded as “approximately 47.5 folds”. In data set [1], the “EC100 (safe concentration at 100% cell viability)” value is 58.92 µM and 58.916 ± 10.698 µM. In data set [2] (Homo sapiens, Caco-2, 72 h), the midpoint of inhibition, the IC50, lay at 12 ± 1.36 µM.
Regarding `C=CCN1C(=O)SC(=Cc2cccc(Cl)c2)C1=O` [Compound 4b, 3-Allyl-5-(3-chlorobenzylidene)thiazolidine-2,4-dione], in data set [1], the “EC100 (safe concentration at 100% cell viability)” value stood at 9.902 ± 2.360 µM. The IC50 in data set [2] (Homo sapiens, Caco-2, 72 h) worked out at 13.8 ± 0.789 µM.
The corresponding values for `C=CCN1C(=O)SC(=Cc2ccc([N+](=O)[O-])cc2)C1=O` [Compound 4c, 3-Allyl-5-(4-nitrobenzylidene)thiazolidine-2,4-dione] are 7.078 ± 0.136 µM and 6.52 ± 0.077 µM.
The compound `C=CCN1C(=O)SC(=Cc2ccc(N(C)C)cc2)C1=O` [Compound 4d, 3-Allyl-5-(4-(dimethylamino)benzylidene)thiazolidine-2,4-dione] registered an IC50 in data set [2] (Homo sapiens, Caco-2, 72 h) of 7.062 ± 0.005 µM.
Still for that read-out and setting: with `C=CCOc1ccc(C=C2SC(=O)N(CC=C)C2=O)cc1` [Compound 4e, 3-Allyl-5-(4-(allyloxy)benzylidene)thiazolidine-2,4-dione] the figure was 12.2 ± 3.12 µM; with `CCOC(=O)CN1C(=O)SC(=Cc2ccccc2)C1=O` [Compound 5a, Ethyl-2-(5-benzylidene-2,4-dioxothiazolidin-3-yl)acetate], 8.2 ± 0.135 µM.
With `CCOC(=O)CN1C(=O)SC(=Cc2ccc([N+](=O)[O-])cc2)C1=O` [Compound 5c, Ethyl-2-(5-(4-nitrobenzylidene)-2,4-dioxothiazolidin-3-yl)acetate], the “EC100 (safe concentration at 100% cell viability)” value in data set [1] was determined as 8.573 ± 0.409 µM. This compound showed an IC50 in data set [2] (Homo sapiens, Caco-2, 72 h) of 6.67 ± 0.118 µM.
The corresponding values for `CCOC(=O)CN1C(=O)SC(=Cc2ccc(N(C)C)cc2)C1=O` [Compound 5d, Ethyl-2-(5-(4-(dimethylamino)benzylidene)-2,4-dioxothiazolidin-3-yl)acetate] are 16.179 ± 6.066 µM and 8.24 ± 2.59 µM.
The corresponding values for `CCOC(=O)COc1ccc(C=C2SC(=O)N(CC(=O)OCC)C2=O)cc1` [Compound 5e, Ethyl-2-(5-(4-(2-ethoxy-2-oxoethoxy)benzylidene)-2,4-dioxothiazolidin-3-yl)acetate] are 8.417 ± 0.004 µM and 8.57 ± 0.942 µM.
On to `O=C1SC(=Cc2ccccc2)C(=O)N1CCCBr` [Compound 6a, 5-Benzylidene-3-(3-bromopropyl)thiazolidine-2,4-dione], for which the “EC100 (safe concentration at 100% cell viability)” value in data set [1] came to 18.938 ± 0.975 µM. Also, in data set [2], the “Morphological changes of Caco-2 cells” value was “severe shrinkage and collapse”; half-maximal inhibition (IC50) required 4.739 ± 0.021 µM. In data set [2] (Homo sapiens, Caco-2, 72 h), this compound displayed an IC50 of 4.73 µM.
For the compound `O=C1SC(=Cc2ccc([N+](=O)[O-])cc2)C(=O)N1CCCBr` [Compound 6c, 3-(3-Bromopropyl)-5-(4-nitrobenzylidene)thiazolidine-2,4-dione], the “EC100 (safe concentration at 100% cell viability)” value in data set [1] came to 13.424 ± 1.130 µM. Half-maximal inhibition in data set [2] (Homo sapiens, Caco-2, 72 h) (IC50) was put at 10.4 ± 0.499 µM.
The corresponding values for `CN(C)c1ccc(C=C2SC(=O)N(CCCBr)C2=O)cc1` [Compound 6d, 3-(3-Bromopropyl)-5-(4-(dimethylamino)benzylidene)thiazolidine-2,4-dione] are 14.776 ± 1.125 µM and 7.94 ± 0.599 µM.
`O=C1SC(=Cc2ccc(OCCCBr)cc2)C(=O)N1CCCBr` [Compound 6e, 5-(4-(3-Bromopropoxy)benzylidene)-3-(3-bromopropyl)thiazolidine-2,4-dione]: the “EC100 (safe concentration at 100% cell viability)” value in data set [1] amounted to 10.683 ± 2.384 µM. Moreover, the “Morphological changes of Caco-2 cells” value in data set [2] was “severe shrinkage and collapse”. The IC50 in data set [2] was found to be 4.41 ± 0.546 µM; in data set [2] (Homo sapiens, Caco-2, 72 h), 4.41 µM.
For the compound `O=C1SC(=Cc2ccccc2)C(=O)N1CCCO` [Compound 7a, 5-Benzylidene-3-(3-hydroxypropyl)thiazolidine-2,4-dione], the “EC100 (safe concentration at 100% cell viability)” value in data set [1] was 18.923 ± 1.959 µM. This compound also registered an IC50 in data set [2] (Homo sapiens, Caco-2, 72 h) of 10.2 ± 0.77 µM.
The corresponding values for `O=C1SC(=Cc2ccc([N+](=O)[O-])cc2)C(=O)N1CCCO` [Compound 7c, 3-(3-Hydroxypropyl)-5-(4-nitrobenzylidene)thiazolidine-2,4-dione] are 11.439 ± 0.927 µM and 6.77 ± 0.096 µM.
For `CN(C)c1ccc(C=C2SC(=O)N(CCCO)C2=O)cc1` [Compound 7d, 5-(4-(Dimethylamino)benzylidene)-3-(3-hydroxypropyl)thiazolidine-2,4-dione], the “EC100 (safe concentration at 100% cell viability)” value in data set [1] stood at 12.073 ± 3.577 µM. In data set [2] (Homo sapiens, Caco-2, 72 h), this compound came in with an IC50 of 7.118 ± 0.01 µM.
Consider `COc1cccc2c1C(=O)c1c(O)c3c(c(O)c1C2=O)C[C@@](O)(C(=O)CO)C[C@@H]3O[C@H]1C[C@H](N)[C@H](O)[C@H](C)O1` [DOX, doxorubicin], for which the “Inhibition of ALDH1A activity” value in the data set on ALDH1A is recorded as “about 4.800%”. Besides, the “EC100 (safe concentration at 100% cell viability)” value in data set [1] was 1.239 ± 0.285 µM. Moreover, the “Inhibition of intracellular SOD activity” value at Cu/Zn SOD amounted to 30.78%. Further, the half-maximal inhibitory concentration (IC50) amounted to 19.9 ± 2.37 µM in data set [2] and 19.9 µM in data set [2] (Homo sapiens, Caco-2, 72 h). For the same compound, the “Fold increment in cellular ROS level relative to untreated cells” value in the data set on Caco-2 cells was found to be 4.065 folds. In data set [3], the “Inhibition of GPx activity” value was 40.31%.

What is called IC50 is the concentration needed to halve the response being measured.
